Values after ≈ are worked out from the molar mass of the structure shown. Where two headings read alike, the source gives them in different places.
Assays:
H. influenzae Q1 = experiment: MIC against H. influenzae Q1, alone and with subinhibitory concentrations of a second agent;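 note: combinations paired PDF inhibitors with macrolides, one class added below its own MIC to test whether the MIC of the other class dropped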; type: cell-based, Haemophilus influenzae; conditions: H. influenzae Q1
S. aureus WCUH29 = experiment: MIC against S. aureus WCUH29, alone and with subinhibitory concentrations of a second agent; type: cell-based, Staphylococcus aureus; conditions: for Compound (1a) fold decrease MIC: S. aureus WCUH29; for MIC: Staphylococcus aureus, WCUH29, S. aureus WCUH29
[1] = system: representative S. aureus strains; experiment: MIC against representative S. aureus strains, summary over strains; type: cell-based, Staphylococcus aureus; conditions: Example 6
Excerpt: (§1) Subinhibitory Concentrations of PDF Inhibitors Decrease the MICs of Macrolides against Representative S. aureus Strains
(§2) Subinhibitory Concentrations of Macrolides Decrease the MICs of PDF Inhibitors against Representative S. aureus Strains

S. aureus strain PK1 = experiment: MIC against S. aureus strain PK1, alone and in combination; type: cell-based, Staphylococcus aureus; conditions: for MIC: Staphylococcus aureus
Excerpt: as §1, §2

S. aureus strain Smith = experiment: MIC against S. aureus strain Smith, alone and in combination; type: cell-based, Staphylococcus aureus; conditions: for MIC: Staphylococcus aureus
S. aureus strain RN4220 = experiment: MIC against S. aureus strain RN4220, alone and in combination; type: cell-based, Staphylococcus aureus; conditions: for MIC: Staphylococcus aureus
S. aureus strain Oxford = experiment: MIC against S. aureus strain Oxford, alone and in combination; type: cell-based, Staphylococcus aureus; conditions: for MIC: Staphylococcus aureus
Excerpt: as §1, §2

[2] = S. aureus, text summary of Example 4
[3] = single agent, read-out: MIC, Compound (1a) alone
[4] = with ¼ MIC of Tylosin, read-out: MIC, Compound (1a) with ¼ MIC of Tylosin
[5] = with ½ MIC of Tylosin, read-out: MIC, Compound (1a) with ½ MIC of Tylosin

SMILES: CCCCC[C@H](CN(O)C=O)C(=O)NNc1nccc(C(F)(F)F)n1 [Compound (1a), N-hydroxy-N-{(R)-2-[N′-(4-trifluoromethyl-pyrimidin-2-yl)-hydrazinocarbonyl]-heptyl}-formamide]
- MIC, antibiotic with 0.25 ug/m (¼ MIC) of Azithromycin (H. influenzae Q1; +0.25 ug/m Azithromycin): 1 µg/mL
- fold decrease MIC, antibiotic with 0.25 ug/m (¼ MIC) of Azithromycin (H. influenzae Q1; +0.25 ug/m Azithromycin): [2] fold
- MIC, antibiotic with 0.5 ug/mL (½ MIC) of Azithromycin (H. influenzae Q1; +0.5 ug/mL Azithromycin): 0.5 µg/mL
- fold decrease MIC, antibiotic with 0.5 ug/mL (½ MIC) of Azithromycin (H. influenzae Q1; +0.5 ug/mL Azithromycin): [4] fold
- MIC, antibiotic alone (H. influenzae Q1; single agent (Example 8)): 2 µg/mL (≈ 5.5 µM)
- Compound (1a) fold decrease MIC (S. aureus WCUH29; +Azithromycin 0.25 μg/ml {¼ × MIC}): [4] fold
- Compound (1a) fold decrease MIC (S. aureus WCUH29; +Azithromycin 0.5 μg/ml {½ × MIC}): [8] fold
- Compound (1a) fold decrease MIC (S. aureus WCUH29; +Ciprofloxacin 0.06 μg/ml {¼ × MIC}): [0] fold
- Compound (1a) fold decrease MIC (S. aureus WCUH29; +Ciprofloxacin […] {½ × MIC}): [0] fold
- Compound (1a) fold decrease MIC (S. aureus WCUH29; +Erythromycin 0.06 μg/ml {¼ × MIC}): [4] fold
- Compound (1a) fold decrease MIC (S. aureus WCUH29; +Erythromycin […] {½ × MIC}): [8] fold
- Compound (1a) fold decrease MIC (S. aureus WCUH29; +Tylosin 0.25 μg/ml {¼ × MIC}): [4] fold
- Compound (1a) fold decrease MIC (S. aureus WCUH29; +Tylosin 0.5 μg/ml {½ × MIC}): [32] fold
- decrease of MIC by subinhibitory concentrations of azithromycin (S. aureus WCUH29; [2]): 4-8 fold
- decrease of MIC by subinhibitory concentrations of erythromycin (S. aureus WCUH29; [2]): 4-8 fold
- decrease of MIC by subinhibitory concentrations of tylosin (S. aureus WCUH29; [2]): 4-32 fold
- effect of subinhibitory concentrations of ciprofloxacin on antibacterial potency (S. aureus WCUH29; [2]): no effect
- MIC (S. aureus WCUH29; +Azithromycin 0.25 μg/ml {¼ × MIC}, read-out: Compound (1a) MIC): 0.5 µg/mL (≈ 1.38 µM)
- MIC (S. aureus WCUH29; +Azithromycin 0.5 μg/ml {½ × MIC}, read-out: Compound (1a) MIC): 0.25 µg/mL (≈ 0.688 µM)
- MIC (S. aureus WCUH29; +Ciprofloxacin 0.06 μg/ml {¼ × MIC}, read-out: Compound (1a) MIC): 2 µg/mL (≈ 5.5 µM)
- MIC (S. aureus WCUH29; +Ciprofloxacin […] {½ × MIC}, read-out: Compound (1a) MIC): 2 µg/mL (≈ 5.5 µM)
- MIC (S. aureus WCUH29; +Erythromycin 0.06 μg/ml {¼ × MIC}, read-out: Compound (1a) MIC): 0.5 µg/mL (≈ 1.38 µM)
- MIC (S. aureus WCUH29; +Erythromycin […] {½ × MIC}, read-out: Compound (1a) MIC): 0.25 µg/mL (≈ 0.688 µM)
- MIC (S. aureus WCUH29; +Tylosin 0.25 μg/ml {¼ × MIC}, read-out: Compound (1a) MIC): 0.5 µg/mL (≈ 1.38 µM)
- MIC (S. aureus WCUH29; +Tylosin 0.5 μg/ml {½ × MIC}, read-out: Compound (1a) MIC): 0.06 µg/mL (≈ 0.165 µM)
- MIC (S. aureus WCUH29; no second agent, read-out: MIC, single agent): 2 µg/mL (≈ 5.5 µM)
- decrease of MIC by subinhibitory concentrations of tylosin [1]: 2-128 fold
- MIC (S. aureus strain PK1; [3]): 0.5 µg/mL
- MIC (S. aureus strain PK1; [4]): 0.06 µg/mL
- MIC (S. aureus strain PK1; [5]): 0.016 µg/mL
- fold decrease MIC, Compound (1a) with ¼ MIC of Tylosin (S. aureus strain PK1; with ¼ MIC of Tylosin): [8] fold
- fold decrease MIC, Compound (1a) with ½ MIC of Tylosin (S. aureus strain PK1; with ½ MIC of Tylosin): [32] fold
- MIC (S. aureus strain Smith; [3]): 4 µg/mL
- MIC (S. aureus strain Smith; [4]): 0.5 µg/mL
- MIC (S. aureus strain Smith; [5]): 0.125 µg/mL
- fold decrease MIC, Compound (1a) with ¼ MIC of Tylosin (S. aureus strain Smith; with ¼ MIC of Tylosin): [8] fold
- fold decrease MIC, Compound (1a) with ½ MIC of Tylosin (S. aureus strain Smith; with ½ MIC of Tylosin): [32] fold
- MIC (S. aureus strain RN4220; [3]): 4 µg/mL
- MIC (S. aureus strain RN4220; [4]): 0.25 µg/mL
- MIC (S. aureus strain RN4220; [5]): 0.03 µg/mL
- fold decrease MIC, Compound (1a) with ¼ MIC of Tylosin (S. aureus strain RN4220; with ¼ MIC of Tylosin): [16] fold
- fold decrease MIC, Compound (1a) with ½ MIC of Tylosin (S. aureus strain RN4220; with ½ MIC of Tylosin): [128] fold
- MIC (S. aureus strain Oxford; [3]): 2 µg/mL
- MIC (S. aureus strain Oxford; [4]): 1 µg/mL
- MIC (S. aureus strain Oxford; [5]): 0.25 µg/mL
- fold decrease MIC, Compound (1a) with ¼ MIC of Tylosin (S. aureus strain Oxford; with ¼ MIC of Tylosin): [2] fold
- fold decrease MIC, Compound (1a) with ½ MIC of Tylosin (S. aureus strain Oxford; with ½ MIC of Tylosin): [8] fold
